Consider one compound from US10668048B2, “Compounds for inhibiting bacterial growth via phosphatidylglycerol binding” (Wichita State University, priority 2016, dated 2020).

One data set deals with Red blood cells (RBCs). The data set can be described thus: Erythrocyte toxicity, hemoglobin release at 414 nm. The class given is cell-based. The conditions noted are these: 2.5-5 μM, 30 minutes, 37° C. Here is the method: Toxicity of liptin 3e to eukaryotic erythrocytes was assessed by UV/Visible spectroscopy, whereby the change in absorbance at 414 nm was used to quantify the release of hemoglobin, where 100% hemolysis was measured by adding 1% Triton X-100 detergent. Red blood cells (RBCs) were suspended in a buffer of 25 mM TRIS and 1.5 mM dihydrogenphosphate anion (serum inorganic phosphate levels). To the RBCs samples was added differing concentration of 3e—2.5 μM, 5 μM, 7.5 μM, and 10 μM, as well as control containing no 3e, and after 30 minutes incubation and gentle shaking at 37° C. spectra were obtained.

Data set [1] deals with Staphylococcus aureus str. ATCC 29213. The data set is described as follows: Long term growth study in brain-heart infusion medium. The class given is cell-based. The method, then:
(§1) Staphylococcus aureus str. ATCC 29213 was grown as shake-tubes in brain-heart infusion medium supplemented with liptin and culture densities were measured by turbidity (FIG. 13A). At 0.5 μM 3e, there was an 8-h lag phase before culture density began to increase, which was not seen without addition of liptin 3e. Further, the growth rate was substantially lower over the next 12 h as culture density approached that of controls. Lag phases were on the order of days to weeks at liptin concentrations of ≥1.5 μM, and slow recovery followed. […] Growth of Escherichia coli str. […] Our novel antibacterial compounds attack plasma membranes through a less specific mode of action, which may avoid the pitfalls that lead to antibiotic resistance.

In data set [2] the test system is Escherichia coli str. MC4100. Described as above. The class given is cell-based. The method, then:
as §1

Data set [3] can be described thus: Carboxy-fluorescein efflux from PE/PG liposomes. The class given is biochemical. The conditions noted are these: 2.5 μM, after 90 minutes. The method, then: Liptin 3e causes membrane leakage when it binds to PG in a membrane, as evidenced by the efflux of fluorescent carboxy-fluorescein from model lipid vesicles of 80% PE/20% PG (the approximate lipid content models E. coli's plasma membrane), shown in FIG. 19A. […] Not shown is the effect of the bee AMP melittin, which forms pores in membranes at 2.5 μM concentrations. Upon addition of melittin within a few minutes of addition the efflux is 100%.
Liptins 3f-h also cause membrane leakage when they bind to PG in a membrane, as evidenced by the efflux of fluorescent carboxy-fluorescein from model lipid vesicles of 80% PE/20% PG (the lipid content models E. coli's plasma membrane), shown in FIG. 19B. The circle bottom line data set is the control without liptin. […] Y-axis: % Efflux; X-axis: Time in minutes.
This greater efflux activity may well translate to lower MICs of these two compounds relative to liptin 3e, and may well change the liptin activity from bacteriostatic to bactericidal. […]

A further data set has as its system E. coli strain MC4100. The data set can be described thus: IPTG-induced PapD overexpression, gel electrophoresis. The conditions noted are these: IPTG and 5 μM. In kind it is cell-based. From the text:
The E. coli strain MC4100 will produce the pili chaperone PapD, a periplasmic protein, when induced by IPTG. […] The left panel represents the periplasmic fraction with lanes running left to right: ladder, NR, C, R, all with no IPTG; NR+IPTG, C+IPTG, R+IPTG (negative control was porphyrin A) or in the cytosol represented in the right panel with lanes running from left to right: NR, C, R, all with no IPTG; ladder, NR+IPTG, C+IPTG, R+IPTG (negative control was porphyrin A). (NR=no liptin, C=control, R=liptin). IPTG gets into the cytoplasm most efficiently via uphil symport via the plasma membrane protein lac permease when the plasma membrane is fully polarized.

The structures appear in SMILES notation.

Take `NCC(=O)Nc1ccccc1-c1c2nc(c(-c3ccccc3NC(=O)CN)c3ccc([nH]3)c(-c3ccccc3NC(=O)CN)c3nc(c(-c4ccccc4NC(=O)CN)c4ccc1[nH]4)C=C3)C=C2.O=C(O)C(F)(F)F.O=C(O)C(F)(F)F.O=C(O)C(F)(F)F.O=C(O)C(F)(F)F` [Liptin 3e]: the “damage to red blood cells (hemolysis)” value with Red blood cells (RBCs) was 4.5-11%. In data set [1] (0.5 μM), this compound had a lag phase of 8 h. Further, the lag phases entry in data set [1] (≥1.5 μM) was “days to weeks”; in data set [2] (1.5 μM), 8 h; in data set [2] (10 μM) it was “greater than 24 h”. Moreover, in data set [3], the “dye leakage (efflux)” value was 5-10%. Also, the “PapD in periplasmic space or cytosol” value in the data set with E. coli strain MC4100 is recorded as “no PapD was found”.
